Experimental data as given in US12692253B2, “Antimicrobial compounds and methods” (Curza Global, LLC, priority 2019, dated 2026).

What was measured:
[1] = test system: E. coli S30 extract (bacterial protein synthesis); assay: E. coli S30 extract coupled transcription-translation luciferase assay (inhibition of bacterial protein synthesis); assay type: biochemical; settings: % inhibition @ 1 μM, read-out: S30 IC50 (μM/% inhib.)
Method in brief: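 Coupled transcription-translation in E. coli S30 circular-DNA extract expressing luciferase from pBESTluc, with 8-point 2-fold compound dilutions; 1 hour at 37 °C, stopped at 4 °C. Luminescence read; % inhibition versus no-inhibitor wells, no-DNA wells as background.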

[2] = target: Rabbit Reticulocyte Lysate (eukaryotic protein synthesis); assay: Rabbit reticulocyte lysate luciferase assay (inhibition of eukaryotic protein synthesis); assay type: biochemical; settings: % inhibition @ 1 μM, read-out: Rabbit reticulocyte IC50 (μM/% inhib.)
Method in brief: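 In vitro translation of luciferase control RNA in nuclease-treated rabbit reticulocyte lysate with amino acid mixture, compounds in 2-fold serial dilution, 90 minutes at 30° C. Luminescence read after luciferase reagent; % inhibition relative to water no-inhibitor controls, with no-RNA background wells.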

A. baumannn (Ab) = assay: Broth microdilution minimum inhibitory concentration (MIC), CLSI; assay type: cell-based; settings: A. baumannn; growth medium with sodium bicarbonate; read-out: Ab + bicarb MIC
Method in brief: (§1)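 Bacteria grown at 35±2 °C to 0.5 McFarland turbidity were added at 5×10^4 CFU/well to triplicate two-fold compound series (8 dilutions). Media were cation-adjusted Mueller-Hinton broth alone or with sodium bicarbonate (6.25 or 25 mM final) or heat-inactivated human serum (0–50%), per modified CLSI method.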

E. coli (Ec) = assay: as above; assay type: cell-based; settings: Escherichia coli, growth medium with sodium bicarbonate, read-out: E. coli + bicarb MIC
Method in brief: as §1

E. faecalis (Ef) = assay: as above; assay type: cell-based; settings: growth medium with sodium bicarbonate; for MIC: Enterococcus faecalis, read-out: Ef + bicarb MIC
Method in brief: as §1

P. aeruginosa (Pa) = assay: as above; assay type: cell-based; settings: Pseudomonas aeruginosa, growth medium with sodium bicarbonate, read-out: Pa MIC + bicarb
Method in brief: as §1

S. aureus (Sa) = assay: as above; assay type: cell-based; settings: Staphylococcus aureus, growth medium with sodium bicarbonate, read-out: Sa + bicarb MIC
Method in brief: as §1

Row | SMILES | IC50 [1] [µM] | IC50 [2] [µM] | MIC (A. baumannn (Ab)) [µg/mL] | MIC (E. coli (Ec)) [µg/mL] | MIC (E. faecalis (Ef)) [µg/mL] | MIC (P. aeruginosa (Pa)) [µg/mL] | MIC (S. aureus (Sa)) [µg/mL] | Ef + bicarb MIC (E. faecalis (Ef))
1 | CC(C)(N)C(=O)N1CCN(C(=O)Nc2ccn(-c3ccc(CN4C[C@@H]5C([C@H](N)CO)[C@@H]5C4)cc3)c(=O)n2)CC1 (stereo partly drawn) [Compound 207] | < 0.5 | ≥ 1 | > 32 | < 8 | 8 to 32 | > 32 | < 8 | 
2 | CC(Cc1ccc(-n2ccc(NC(=O)N3CCN(C(=O)C(C)(C)N)CC3)nc2=O)cc1C(F)(F)F)N1C[C@@H]2[C@@H](CN)[C@@H]2C1 (stereo partly drawn) [Compound 208] | < 0.5 | ≥ 1 | 8 to 32 | < 8 | < 8 | > 32 | < 8 | 
3 | CC(Cc1ccc(-n2ccc(NC(=O)N3CCN(C(=O)C(C)(C)N)CC3)nc2=O)cc1C(F)(F)F)N1C[C@@H]2[C@@H](N)[C@@H]2C1 (stereo partly drawn) [Compound 209] | ≥ 1 | ≥ 1 | > 32 | > 32 | > 32 | > 32 | > 32 | 
4 | CC(C)(N)C(=O)N1CCN(C(=O)Nc2ccn(-c3ccc(CCN4C[C@@H]5[C@H](C4)[C@H]5C(N)CO)cc3)c(=O)n2)CC1 (stereo partly drawn) [Compound 210] | 0.5 to 1 | ≥ 1 | > 32 | < 8 | 8 to 32 | > 32 | < 8 | 
5 | CCC(Cc1ccc(-n2ccc(NC(=O)N3CCN(C(=O)C(C)(C)N)CC3)nc2=O)cc1C(F)(F)F)N1C[C@@H]2[C@@H](CN)[C@@H]2C1 (stereo partly drawn) [Compound 211] | 0.5 to 1 | ≥ 1 | 8 to 32 | < 8 | < 8 | > 32 | < 8 | 
6 | CC(=O)NC[C@@H]1[C@H]2CN(C(C)Cc3ccc(-n4ccc(NC(=O)N5CCN(C(=O)C(C)(C)N)CC5)nc4=O)cc3)C[C@@H]12 (stereo partly drawn) [Compound 212] | ≥ 1 | ≥ 1 | > 32 | > 32 | > 32 | > 32 | > 32 | 
7 | CC(C)(N)C(=O)N1CCN(C(=O)Nc2ccn(-c3ccc(CCN4C[C@@H]5[C@H](C4)[C@H]5C(N)CN)cc3)c(=O)n2)CC1 (stereo partly drawn) [Compound 213] | ≥ 1 | ≥ 1 | > 32 | < 8 | > 32 | > 32 | > 32 | 
8 | CC(Cc1ccc(-n2ccc(NC(=O)N3CCN(C(=O)C(C)(C)N)CC3)nc2=O)cc1)N1CC2CCC(N)C2C1 (stereo not drawn) [Compound 214] | < 0.5 | ≥ 1 | > 32 | < 8 | < 8 | > 32 | < 8 | 
9 | CC(Cc1ccc(-n2ccc(NC(=O)N3CCN(C(=O)C(C)(C)N)CC3)nc2=O)cc1)N1CC2CCC(N)CC2C1 (stereo not drawn) [Compound 215] | < 0.5 | ≥ 1 | > 32 | < 8 |  | > 32 | < 8 | ++ (An MIC value (μg/mL) that is 8 μg/mL or greater and less than 32 μg/mL)
10 | CC(Cc1ccc(-n2ccc(NC(=O)N3CCN(C(=O)C(C)(C)N)CC3)nc2=O)cc1)N1CC2CCCC(N)C2C1 (stereo not drawn) [Compound 216] | < 0.5 | ≥ 1 | > 32 | < 8 | < 8 | > 32 | < 8 | 
11 | CCC(Cc1ccc(-n2ccc(NC(=O)N3CCN(C(=O)C(C)(C)N)CC3)nc2=O)cc1)N1CC2CCC(N)C2C1 (stereo not drawn) [Compound 217] | < 0.5 | ≥ 1 | > 32 | < 8 | < 8 | > 32 | < 8 | 
12 | CCC(Cc1ccc(-n2ccc(NC(=O)N3CCN(C(=O)C(C)(C)N)CC3)nc2=O)cc1)N1CC2CCC(N)CC2C1 (stereo not drawn) [Compound 218] | < 0.5 | ≥ 1 | > 32 | < 8 |  | > 32 | < 8 | +++ (An MIC value (μg/mL) that is less than 8 μg/mL)
13 | CCC(Cc1ccc(-n2ccc(NC(=O)N3CCN(C(=O)C(C)(C)N)CC3)nc2=O)cc1)N1CC2CCCC(N)C2C1 (stereo not drawn) [Compound 219] | < 0.5 | ≥ 1 | > 32 | < 8 | < 8 | > 32 | < 8 | 
14 | CC(Cc1ccc(-n2ccc(NC(=O)N3CCN(C(=O)C(C)(C)N)CC3)nc2=O)cc1)[N+]1(C)C[C@@H]2[C@@H](CN)[C@@H]2C1 (stereo partly drawn) [Compound 220] | < 0.5 | ≥ 1 | > 32 | < 8 | 8 to 32 | > 32 | < 8 | 
15 | CCC(Cc1ccc(-n2ccc(NC(=O)N3CCN(C(=O)C(C)(C)N)CC3)nc2=O)cc1)N1C[C@@H]2[C@@H](CNC)[C@@H]2C1 (stereo partly drawn) [Compound 221] | ≥ 1 | ≥ 1 | < 8 | < 8 | < 8 | > 32 | < 8 | 
16 | CC(Cc1ccc(-n2ccc(NC(=O)N3CCN(C(=O)[C@H](C)N)CC3)nc2=O)cc1)N1C[C@@H]2[C@@H](CN)[C@@H]2C1 (stereo partly drawn) [Compound 222] | 0.5 to 1 | ≥ 1 | > 32 | < 8 | 8 to 32 | > 32 | < 8 | 
17 | CC(C)[C@H](N)C(=O)N1CCN(C(=O)Nc2ccn(-c3ccc(CC(C)N4C[C@@H]5[C@@H](CN)[C@@H]5C4)cc3)c(=O)n2)CC1 (stereo partly drawn) [Compound 223] | < 0.5 | ≥ 1 | > 32 | < 8 | < 8 | > 32 | < 8 | 
18 | CCC(N)(CC)C(=O)N1CCN(C(=O)Nc2ccn(-c3ccc(CN4C[C@@H]5[C@@H](N)[C@@H]5C4)cc3)c(=O)n2)CC1 [Compound 224] | < 0.5 | ≥ 1 | > 32 | < 8 | < 8 | > 32 | < 8 | 
19 | CC(Cc1ccc(-n2ccc(NC(=O)N3CCN(C(=O)C(C)(C)N)CC3)nc2=O)cc1)N1CCC2(CC(N)C2)C1 (stereo not drawn) [Compound 225] | 0.5 to 1 | ≥ 1 | > 32 | < 8 |  | > 32 | < 8 | +++ (An MIC value (μg/mL) that is less than 8 μg/mL)
20 | CC(Cc1ccc(-n2ccc(NC(=O)N3CCN(C(=O)C4(N)CC4)CC3)nc2=O)cc1)N1C[C@@H]2[C@@H](CN)[C@@H]2C1 (stereo partly drawn) [Compound 226] | ≥ 1 | ≥ 1 | > 32 | > 32 | > 32 | > 32 | > 32 | 
21 | CC(Cc1ccc(-n2ccc(NC(=O)N3CCN(C(=O)CN)CC3)nc2=O)cc1)N1C[C@@H]2[C@@H](CN)[C@@H]2C1 (stereo partly drawn) [Compound 227] | 0.5 to 1 | ≥ 1 | > 32 | < 8 | < 8 | > 32 | < 8 | 
22 | CC(Cc1ccc(-n2ccc(NC(=O)N3CCN(C(=O)[C@@H]4CCCN4)CC3)nc2=O)cc1)N1C[C@@H]2[C@@H](CN)[C@@H]2C1 (stereo partly drawn) [Compound 228] | ≥ 1 | ≥ 1 | > 32 | < 8 | 8 to 32 | > 32 | < 8 | 
23 | CC(Cc1ccc(-n2ccc(NC(=O)N3CCN(C(=O)C4(N)CCC4)CC3)nc2=O)cc1)N1C[C@@H]2[C@@H](CN)[C@@H]2C1 (stereo partly drawn) [Compound 229] | ≥ 1 | ≥ 1 | > 32 | 8 to 32 | > 32 | > 32 | > 32 | 
24 | CC(C)[C@@H](N)C(=O)N1CCN(C(=O)Nc2ccn(-c3ccc(CC(C)N4C[C@@H]5[C@@H](CN)[C@@H]5C4)cc3)c(=O)n2)CC1 (stereo partly drawn) [Compound 230] | ≥ 1 | ≥ 1 | > 32 | < 8 | > 32 | > 32 | 8 to 32 | 
25 | CC(Cc1ccc(-n2ccc(NC(=O)N3CCN(C(=O)C[C@H](C)N)CC3)nc2=O)cc1)N1C[C@@H]2[C@@H](CN)[C@@H]2C1 (stereo partly drawn) [Compound 231] | ≥ 1 | ≥ 1 | > 32 | < 8 | > 32 | > 32 | < 8 | 
26 | CC(Cc1ccc(-n2ccc(NC(=O)N3CCN(C(=O)[C@H]4C[C@@H](N)C4)CC3)nc2=O)cc1)N1C[C@@H]2[C@@H](CN)[C@@H]2C1 (stereo partly drawn) [Compound 232] | ≥ 1 | ≥ 1 | > 32 | < 8 | > 32 | > 32 | < 8 | 
27 | CC(Cc1ccc(-n2ccc(NC(=O)N3CCN(C(=O)C(C)(C)CN)CC3)nc2=O)cc1)N1C[C@@H]2[C@@H](CN)[C@@H]2C1 (stereo partly drawn) [Compound 233] | ≥ 1 | ≥ 1 | > 32 | < 8 | 8 to 32 | > 32 | < 8 | 
